According to patent US10053422B2, “Compounds for the treatment of mTOR pathway related diseases” (Pitney Pharmaceuticals Pty Limited, priority 2012, dated 2018):
Entries after “also recorded” stand apart in the source; their conditions may differ. Read-outs that look alike come from different tables or passages of the source.

Assays:
OVCAR-3 or A2780 cells [1] = assay: Cellular ATP and ADP/ATP ratio; type: cell-based, human
Description: ADP and ATP levels in the media were measured using the commercial colorimetric/fluorometric assay kits from Abcam together with the ApoGlow assay kit from Lonza (Sydney, Australia subsidary). Each value represents mean+s.e.m. of at least two determinations.

[2] = system: A2780 ovarian cancer cells; assay: Autophagy (vacuole formation), A2780; type: cell-based, human
Excerpt: (§1) Autophagy is a characteristic of mTOR inhibition.

3T3 fibroblast = assay: SRB cell proliferation assay, 3T3; type: cell-based; conditions: 3T3, fibroblast (Table 2); read-out: IC50 in suppressing proliferation
Description: (§2) Cell proliferation was assessed using the sulforhodamine B (SRB) assay. Cells seeded in 96-well plate (2,000-3,000 cell/well) were treated with MPL (0, 1, 5, 10, 25, 50 and 100 μmol/L) for 72 h. Cells were then fixed, washed and stained with 100 μl of 0.4% (w/v) SRB dissolved in 1% acetic acid. Unbound dye was removed by five washes with 1% acetic acid before air drying. Bound SRB was solubilized with 100 μl of 10 mM Tris base (pH 10.5) and the absorbance read at 570 nm. Exactly the same procedure was used to assess MPL-SO2. Both agents were dissolved in ethanol and diluted with media to give the final concentrations required for cell culture assays.

OVCAR-3 or A2780 cells [3] = assay: Cell cycle analysis by flow cytometry; type: cell-based, human
Description: OVCAR-3 (FIG. 3a) or A2780 (FIG. 3b) cells were treated with MPL (0, 5, 10 and 25 μmol/L) for 48 hours. Propodium iodide stained cells were analysed for DNA content using flow cytometric analysis. The results (see table) are shown as a percentage of cells in G1, S and G2/M phases. Each value represents mean±SEM of 2 independent experiments.
OVCAR-3 or A2780 cells were treated with MPL (0, 5, 10, 25 μM) for 48 h and examined by flow cytometric analysis (FACS) after staining the cells with PI. The Fig. and data present MPL-induced change in cell distribution in various phases of the cell cycle, here shown as percentage of cells in G1, S and G2/M phases. Each value represents mean±SEM of 2 independent determinations.
The effect of MPL on the cell cycle was determined using standard flow cytometry analysis protocols and procedures. Briefly, 0.7×10^6 […] cells seeded in […] flasks and allowed to adhere overnight were treated with MPL for 24 or 48 h. Cells were collected with trypsinization and pooled with the cells floating in the medium. The cell suspensions were centrifuged, washed with PBS and fixed with methanol. Cells were then washed, resuspended in propodium iodide and ribonuclease A in PBS for 30 min at room temperature and analyzed by flow cytometry (Becton Dickinson FACSort).

[4] = system: HUVEC (human umbilical vein endothelial cells); assay: SRB cell proliferation assay, HUVEC; type: cell-based
Description: as §2

[5] = system: mTOR signaling in s.c. grown OVCAR-3 tumors; assay: Western blot of tumor lysates, mTOR related signaling; type: in vivo, female nude mice
Description: Western blot analysis of tumor lysates prepared from s.c. grown OVCAR-3 tumors in female nude mice. Mice were treated from day 8 post cell inoculation i.p. for 3 weeks with MPL (25, 50 mg/kg suspended in 0.5% HPMC given i.p.) or the vehicle (0.5% HPMC). 24 hours after the last dose, tumors were excised and frozen at −80° C. […] Protein expression of mTOR together with c-Myc, cyclins D1 and E2 and CDKs 2 and 4 were suppressed in tumors excised from MPL treated mice.
Female nude mice (6 weeks old) were purchased from Biological Resources (Faculty of Medicine, University of New South Wales). An institutional animal ethics approval covered all procedures carried out on mice. Briefly, 2.5×10^6 log-phase growing OVCAR-3 cells were injected s.c. into the left flank of each mouse. Animals were weighed once weekly while their tumor volumes were determined twice weekly. Tumor growth was monitored by caliper measurements of orthogonal diameters, and the estimated tumor volume was calculated based on the formula ½ (Length×Width^2), where width is the shorter of the two orthogonal measurements. Based on institutional ethics approval, mice were euthanized before the tumor volume reached 500 mm^3. Treatment was initiated on day 8 after tumor cell injection when mice were randomized and assigned to treatment or the control group (6 per group). […]

YOU cells (mesothelioma) = assay: SRB cell proliferation assay, YOU; type: cell-based; conditions: for IC50: YOU
Description: as §2

[6] = system: CHO (Chinese hamster ovarian cells); assay: SRB cell proliferation assay, CHO; type: cell-based; conditions: Cricetulus griseus; CHO = Chinese hamster ovarian cells (Table 3); read-out: IC50 μM CHO
Description: as §2

[7] = cited from earlier work
U87 glioma cells = assay: Autophagy (vacuoles, LC3-II), U87; type: cell-based; conditions: chemo-resistant U87 glioma cells, concentration-dependent
Excerpt: as §1
Concentration-dependent conversion of LC3-I to LC3-II confirms the increasing phenomenon of autophagy in these cells.

OVCAR-3 tumors = assay: s.c. OVCAR-3 xenograft growth in nude mice; type: in vivo, female nude mice
Description: 2.5 million log-phase growing OVCAR-3 cells were injected s.c. into the left flank of each mouse. Tumor growth was monitored by caliper measurements and tumor volumes were determined through measuring orthogonal diameters. Estimated tumor volume was calculated based on the formula ½ (Length×Width2), where width is the shorter of the two orthogonal measurements. Treatment was initiated 7 days post tumor cell injection before which, mice were randomized and assigned to treatment or the control group (6 per group). […] Control group were treated with the vehicle only.
Log-phase growing OVCAR-3 cells were injected s.c. into the left flank of each mouse. Tumor growth was monitored by caliper measurements and tumor volumes were determined through measuring orthogonal diameters. Estimated tumor volume was calculated based on the formula ½ (Length×Width2), where width is the shorter of the two orthogonal measurements. Treatment was initiated 7 days post tumor cell injection before which, mice were randomized and assigned to treatment or the control group (6 per group). […] Control group were treated with the vehicle only.
OVCAR-3 cells were injected s.c. into the left flank of each mouse. Tumor growth was monitored by caliper measurements and tumor volumes were determined of orthogonal diameters, and the estimated tumor volume was calculated based on the formula ½ (Length×Width2), where width is the shorter of the two orthogonal measurements. Treatment was initiated 7 days post tumor cell injection before which, mice were randomized and assigned to treatment or the control group (6 per group). […] Control group were treated orally with the vehicle only.
Mice were inoculated in the left flank with 2.5 million log-phase growing human OVCAR-3 cells. Tumor growth was monitored by caliper measurements and tumor volumes were determined through measuring orthogonal diameters. Estimated tumor volume was calculated based on the formula ½ (Length×Width2), where width is the shorter of the two orthogonal measurements. Treatment was initiated 7 days post tumor cell injection before which, mice were randomized and assigned to treatment or the control group (5-6 per group).
Female nude mice (6 weeks old) were purchased from Biological Resources (Faculty of Medicine, University of New South Wales). An institutional animal ethics approval covered all procedures carried out on mice. […] Animals were weighed once weekly while their tumor volumes were determined twice weekly. Tumor growth was monitored by caliper measurements of orthogonal diameters, and the estimated tumor volume was calculated based on the formula ½ (Length×Width^2), where width is the shorter of the two orthogonal measurements. Based on institutional ethics approval, mice were euthanized before the tumor volume reached 500 mm^3. Treatment was initiated on day 8 after tumor cell injection when mice were randomized and assigned to treatment or the control group (6 per group). Monepantel was suspended in sterile 0.5% (w/v) hydroperoxymethyl cellulose (HPMC). Drug was administered i.p. 3 times weekly at 25 or 50 mg/kg. Control group was treated with sterile vehicle (0.5% HPMC). Mice were treated for a period of 3 weeks. Twenty four hours post-last drug administration, mice were euthanized and their tumors excised and frozen at −80° C. until analysis.
In alternative experiments, treatment was initiated on day 8 post tumor cell inoculation when mice were randomized and assigned to one of MPL or vehicle treated groups (5-6 mice per group). MPL was suspended in hydroperoxy methylcellulose (0.5% w/v HPMC), sterilized by sonnicator and administered every other day either intraperitoneally (i.p) or orally as gavage (100 μL).

OVCAR-3 cells = assay: SRB cell proliferation assay, OVCAR-3; type: cell-based, human
Description: as §2

For `C[C@](C#N)(COc1cc(C#N)ccc1C(F)(F)F)NC(=O)c1ccc(SC(F)(F)F)cc1` [MPL, N-[(1S)-1-Cyano-2-(5-cyano-2-trifluoromethyl-phenoxy)-1-methyl-ethyl]-4-trifluoromethylsulfanyl-benzamide], the “cellular ATP levels” value (OVCAR-3 or A2780 cells [1]) was “reduction in ATP levels”, the “formation of vacuoles (autophagy)” value [2] was “formation of vacuoles” and the IC50 (3T3 fibroblast) was 12.4 ± 0.37 µM. The “percentage of cells in the G2-M phase, vehicle treated group versus treated group” value (OVCAR-3 or A2780 cells [3]; 25 μM MPL) was “more than three times higher”, the cell cycle progression (OVCAR-3 or A2780 cells [3]; concentration and time-dependent) was “arrested in the G1 phase” and the IC50 ([4]; HUVEC = human umbilical vein endothelial cells (Table 3), read-out: IC50 μM HUVEC) was 65 µM. The IC50 ([4]; Homo sapiens, HUVEC (Table 2), read-out: IC50 in suppressing proliferation) was 87 µM, the IC50 ([4]; Homo sapiens, HUVEC, 72 h, SRB assay (Table 1), read-out: IC50) was 87.8 µM and the “tumor mTOR signaling (Western blot)” value ([5]; 25, 50 mg/kg i.p. for 3 weeks, tumors excised 24 hours after last dose) was “suppression of mTOR signaling”. For the same molecule, the “tumor expression of cyclin D1” value ([5]; MPL treated tumor bearing mice) was “dramatic down-regulation of cyclin D1”, the IC50 (YOU cells (mesothelioma); mesothelioma (Table 2), read-out: IC50 in suppressing proliferation) was 23 µM and the IC50 (YOU cells (mesothelioma); mesothelioma, 72 h, SRB assay (Table 1), read-out: IC50) was 23.1 µM. The “replication of YOU cells” value (YOU cells (mesothelioma); highly resistant to chemotherapy) was “profoundly suppressed”, the IC50 [6] was 34.6 µM and the clinical tolerance ([7]; 1000 mg of MPL per kg of body weight per 24 hours, mammals) was “well tolerated”. For the same molecule, the “dose tolerated by animals when used as an anthelmintic” value ([7]; animals) was “up to 2000 mg/kg”, the single-dose toxicity ([7]; single dose) was > 2000 mg per kg of body weight and the “expression of LC3-II (autophagy)” value (U87 glioma cells) was “increased expression of LC3-II”. For the same molecule, the “tumor growth, initial trial” value (OVCAR-3 tumors; 25 mg/kg i.p., three times weekly (trial with 2.5 or 25 mg/kg)) was “particularly effective”, the tumor growth (OVCAR-3 tumors; 50 mg/kg dose (both i.p. and oral), three times weekly) was “profoundly retarding tumor growth” and the “tumor growth, second trial” value (OVCAR-3 tumors; 50 mg/kg i.p. (trial with 25 and 50 mg/kg)) was “more effective in retarding tumor growth”. For the same molecule, the “doses at which anticancer effects are observed in animal models” value (OVCAR-3 tumors; animal models) was 5 to 50 mg/kg, the tumor histology (OVCAR-3 tumors; tumor tissue from the in vivo trials) was “massive areas of tumor cell death; also recorded: extensive necrosis” and the IC50 (OVCAR-3 cells; Homo sapiens, OVCAR-3, ovarian cancer, 72 h in vitro treatment, SRB assay (Table 1), read-out: IC50) was 6.3 µM. The IC50 (OVCAR-3 cells; OVCAR-3, human epithelial ovarian cancer (Table 3), read-out: IC50 μM OVCAR-3) was 7.9 ± 0.9 µM and the “potency of MPL-(R) compared with MPL-(S)” value (OVCAR-3 cells; results of Table 3) was “equipotent”.
